{"source": "paper PMC3669624", "about": "(Molecular Cancer, 2013)", "key": {"5637": {"tested_on": "5637", "assay": "Cell anti-proliferative effect (MTT test)", "assay_type": "cell-based", "settings": "Homo sapiens, 48 h, read-out: EC50 antiproliferative effect", "method": "(§1) UMUC-3, 5637, TCC sup cells and J82 (ATCC, Manassas, VA, USA), derived from human transitional cell carcinoma of the bladder, were routinely cultured in MEM supplemented with 10% fetal bovine serum, 2 mM glutamine, 100 U/mL penicillin, 100 μg/mL streptomycin, 1X NEAA and 1 mM sodium pyruvate. All components were purchased form Invitrogen Corportion (Cergy Pontoise, France), in a humidified incubator at 37°C with a 5% CO2 atmosphere. Caco-2 (IRCCS “S. De Bellis”, Castellana Grotte, Italy), MDCK-MDR1, MDCK-MRP1 (gift of Prof. P. Borst, NKI-AVL Institute, Amsterdam, Netherlands) and MDCK-BCRP cells (gift of Dr. A. Schinkel, NKI-AVL Institute, Amsterdam, Netherlands) were grown in DMEM medium with 10% heat-inactivated fetal calf serum, 100 U/mL penicillin, 100 μg/mL streptomycin and 2 mM L-glutamine (Invitrogen) in a humidified incubator at 37°C with a 5% CO2 atmosphere. The cells were trypsinized twice a week with trypsin/ethylenediaminetetraacetic acid (EDTA) (0.05%/0.02%) and the medium was changed twice a week.\n(§2) Afterwords, 10 μl of 3-[4,5-dimethylthiazol-2-yl]-2,5-diphenyltetrazoliumbromide (MTT) freshly prepared solution (5 mg/ml in PBS) (Sigma) was added in each well, and the plate was incubated in a humidified atmosphere 5% CO2 at 37° for 3–4 h. MTT solution was removed and 200 μL of EtOH/DMSO (1:1) was added to each well to dissolve the blue formazan solid crystals. The optical density was measured at 570 nm and 650 nm wavelenghts using Victor3 (PerkinElmer, Waltham, MA, USA). The results are expressed as EC50 values, obtained from non-linear iterative curve fitting by Prism v.3.0, GraphPad software (GraphPad Software, Inc. San Diego, USA)."}, "J82": {"tested_on": "J82", "assay": "Cell anti-proliferative effect (MTT test)", "assay_type": "cell-based", "settings": "Homo sapiens, read-out: EC50 antiproliferative effect", "method": "as §1, §2"}, "TCC sup": {"tested_on": "TCC sup", "assay": "Cell anti-proliferative effect (MTT test)", "assay_type": "cell-based", "settings": "Homo sapiens, 48 h, read-out: EC50 antiproliferative effect", "method": "as §1, §2"}, "UMUC3": {"tested_on": "UMUC3", "assay": "Cell anti-proliferative effect (MTT test)", "assay_type": "cell-based", "settings": "Homo sapiens, read-out: EC50 antiproliferative effect", "method": "as §1, §2"}, "UMUC-3- CX": {"tested_on": "UMUC-3- CX", "assay": "Cell anti-proliferative effect (MTT test)", "assay_type": "cell-based, human", "settings": "for EC50: Homo sapiens, read-out: EC50 antiproliferative effect", "method": "as §1\nThe pSG5-COX-2 plasmid, which contains a full-length human COX-2 cDNA in the pSG expression vector [23], was used for COX-2 transfection. The plasmid DNA was introduced into UMUC-3 cells using Lipofectamine LTX (Invitrogen). Briefly, 2.5 μg of plasmid DNA and 6.25 μl of Lipofectamine LTX were combined in 500 μl of OpTI-MEM*I reduced serum medium (Invitrogen) and allowed to stand at room temperature for 30 minutes. UMUC-3 cells were plated at 1X105 cells/well in six-well plates. After overnight attachment, the Lipofectamine mixture was applied to cells. After 5 hours of transfection, the medium was removed and complete medium was added. After 48 hours, geneticin G418 (Invitrogen) was added to cells at a concentration of […]. Cell lines were obtained from individual colonies using cloning cylinders. UMUC-3-CX overexpressing cells were obtained and were continuously cultured in complete medium with the addition of 800 μg/ml G418.\nas §2"}, "5637 si-CX": {"tested_on": "5637 si-CX", "assay": "Cell anti-proliferative effect (MTT test)", "assay_type": "cell-based", "settings": "Homo sapiens, 48 h, read-out: EC50 antiproliferative effect", "method": "UMUC-3, 5637, TCC sup cells and J82 (ATCC, Manassas, VA, USA), derived from human transitional cell carcinoma of the bladder, were routinely cultured in MEM supplemented with 10% fetal bovine serum, 2 mM glutamine, 100 U/mL penicillin, 100 μg/mL streptomycin, 1X NEAA and 1 mM sodium pyruvate. All components were purchased form Invitrogen Corportion (Cergy Pontoise, France), in a humidified incubator at 37°C with a 5% CO2 atmosphere. Caco-2 (IRCCS “S. De Bellis”, Castellana Grotte, Italy), MDCK-MDR1, MDCK-MRP1 (gift of Prof. P. Borst, NKI-AVL Institute, Amsterdam, Netherlands) and MDCK-BCRP cells (gift of Dr. A. Schinkel, NKI-AVL Institute, Amsterdam, Netherlands) were grown in DMEM medium with 10% heat-inactivated fetal calf serum, 100 U/mL penicillin, 100 μg/mL streptomycin and 2 mM L-glutamine (Invitrogen) in a humidified incubator at 37°C with a 5% CO2 atmosphere. […]\nas §2, with “MTT solution was removed and 200 μL of EtOH/DMSO (1:1) was added to each well to dissolve the blue formazan solid crystals.” left out"}, "P-gp": {"biological_target": "P-gp (Homo sapiens, UniProt P08183)", "sequence (P08183 whole entry)": "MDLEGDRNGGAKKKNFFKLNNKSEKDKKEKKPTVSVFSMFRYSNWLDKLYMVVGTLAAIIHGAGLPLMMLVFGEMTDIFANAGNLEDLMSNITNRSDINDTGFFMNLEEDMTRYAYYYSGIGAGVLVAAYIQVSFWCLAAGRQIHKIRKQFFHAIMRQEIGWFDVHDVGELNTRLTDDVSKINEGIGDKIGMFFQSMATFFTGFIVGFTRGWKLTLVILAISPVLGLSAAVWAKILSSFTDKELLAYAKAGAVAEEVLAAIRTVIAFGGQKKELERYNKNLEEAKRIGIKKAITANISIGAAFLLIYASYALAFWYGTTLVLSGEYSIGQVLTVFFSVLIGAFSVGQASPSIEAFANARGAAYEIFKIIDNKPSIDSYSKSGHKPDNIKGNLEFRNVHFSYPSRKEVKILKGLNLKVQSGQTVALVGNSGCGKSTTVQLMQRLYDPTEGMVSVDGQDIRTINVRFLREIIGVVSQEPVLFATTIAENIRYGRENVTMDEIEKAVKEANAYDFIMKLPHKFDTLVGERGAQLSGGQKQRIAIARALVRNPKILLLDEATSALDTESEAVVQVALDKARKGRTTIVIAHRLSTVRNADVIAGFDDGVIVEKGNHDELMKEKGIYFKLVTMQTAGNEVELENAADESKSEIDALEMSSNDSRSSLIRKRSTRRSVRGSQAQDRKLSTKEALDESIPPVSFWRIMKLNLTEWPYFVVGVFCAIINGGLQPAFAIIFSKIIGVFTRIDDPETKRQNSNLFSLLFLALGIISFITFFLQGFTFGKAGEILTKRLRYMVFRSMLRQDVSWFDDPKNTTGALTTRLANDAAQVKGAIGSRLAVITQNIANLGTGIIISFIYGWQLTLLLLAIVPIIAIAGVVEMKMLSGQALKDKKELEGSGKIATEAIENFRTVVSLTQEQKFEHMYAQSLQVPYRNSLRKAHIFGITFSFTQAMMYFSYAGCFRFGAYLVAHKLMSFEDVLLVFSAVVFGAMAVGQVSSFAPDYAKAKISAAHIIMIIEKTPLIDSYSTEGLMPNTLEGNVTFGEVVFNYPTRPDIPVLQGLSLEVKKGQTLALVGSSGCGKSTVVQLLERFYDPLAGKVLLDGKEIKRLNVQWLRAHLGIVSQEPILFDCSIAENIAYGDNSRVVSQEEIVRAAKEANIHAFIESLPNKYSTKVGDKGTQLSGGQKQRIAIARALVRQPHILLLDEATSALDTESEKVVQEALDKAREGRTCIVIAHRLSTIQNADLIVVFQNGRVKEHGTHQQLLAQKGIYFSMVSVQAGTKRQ", "assay": "Drug transport experiment, Caco-2 monolayer apparent permeability", "assay_type": "in vitro ADME"}, "Caco-2 cells": {"tested_on": "Caco-2 cells", "assay": "Cell ATP availability assay", "assay_type": "cell-based", "procedure": "Caco-2 cells were seeded into 96-well microplate in 100 μL of complete medium at a density 2×10^4 cells/well. The plate was incubated O/N in a humidified atmosphere (5% CO2 at 37°C). The medium was removed and 100 μL of complete medium were added, in the presence or absence of different concentrations of test compounds. The plate was again incubated for 2 h in a humidified atmosphere. Then, 50 μl of mammalian cell lysis solution were added to all wells and the plate stirred for 5 min in an orbital shaker. In all wells, 50 μl of substrate solution were added, and the plate stirred for 5 min as above reported. The plate was dark adapted for 10 min and the luminescence measured in Victor3 (PerkinElmer) [26]."}, "UMUC-3 cells": {"tested_on": "UMUC-3 cells", "assay": "Intracellular mitomycin C accumulation (flow cytometry)", "assay_type": "cell-based, human", "settings": "UMUC-3, 1 day celecoxib then 1 day MMC and celecoxib", "method": "(§3) After incubation, the cell medium was removed and trypsin/EDTA was used to detach the cells from the plates. Cells were harvested, washed twice in ice-cold PBS (pH 7.4), and placed on ice (<1 hour) until analysis. Analysis was performed using a 530/30 filter (FL1-H [height of fluorescence intensity]). Fluorescence measurements of individual cells were done with a Becton Dickinson FACScan equipped with an […] argon laser. Analysis was gated to include single cells, based on forward and side light scatter, and was based on the acquisition of data from 10,000 cells."}, "UMUC-3-CX cells": {"tested_on": "UMUC-3-CX cells", "assay": "Intracellular mitomycin C accumulation (flow cytometry)", "assay_type": "cell-based, human", "settings": "1 day celecoxib then 1 day MMC and celecoxib", "method": "as §3"}, "MRP1": {"biological_target": "MRP1 (Homo sapiens, UniProt P33527)", "sequence (P33527 whole entry)": "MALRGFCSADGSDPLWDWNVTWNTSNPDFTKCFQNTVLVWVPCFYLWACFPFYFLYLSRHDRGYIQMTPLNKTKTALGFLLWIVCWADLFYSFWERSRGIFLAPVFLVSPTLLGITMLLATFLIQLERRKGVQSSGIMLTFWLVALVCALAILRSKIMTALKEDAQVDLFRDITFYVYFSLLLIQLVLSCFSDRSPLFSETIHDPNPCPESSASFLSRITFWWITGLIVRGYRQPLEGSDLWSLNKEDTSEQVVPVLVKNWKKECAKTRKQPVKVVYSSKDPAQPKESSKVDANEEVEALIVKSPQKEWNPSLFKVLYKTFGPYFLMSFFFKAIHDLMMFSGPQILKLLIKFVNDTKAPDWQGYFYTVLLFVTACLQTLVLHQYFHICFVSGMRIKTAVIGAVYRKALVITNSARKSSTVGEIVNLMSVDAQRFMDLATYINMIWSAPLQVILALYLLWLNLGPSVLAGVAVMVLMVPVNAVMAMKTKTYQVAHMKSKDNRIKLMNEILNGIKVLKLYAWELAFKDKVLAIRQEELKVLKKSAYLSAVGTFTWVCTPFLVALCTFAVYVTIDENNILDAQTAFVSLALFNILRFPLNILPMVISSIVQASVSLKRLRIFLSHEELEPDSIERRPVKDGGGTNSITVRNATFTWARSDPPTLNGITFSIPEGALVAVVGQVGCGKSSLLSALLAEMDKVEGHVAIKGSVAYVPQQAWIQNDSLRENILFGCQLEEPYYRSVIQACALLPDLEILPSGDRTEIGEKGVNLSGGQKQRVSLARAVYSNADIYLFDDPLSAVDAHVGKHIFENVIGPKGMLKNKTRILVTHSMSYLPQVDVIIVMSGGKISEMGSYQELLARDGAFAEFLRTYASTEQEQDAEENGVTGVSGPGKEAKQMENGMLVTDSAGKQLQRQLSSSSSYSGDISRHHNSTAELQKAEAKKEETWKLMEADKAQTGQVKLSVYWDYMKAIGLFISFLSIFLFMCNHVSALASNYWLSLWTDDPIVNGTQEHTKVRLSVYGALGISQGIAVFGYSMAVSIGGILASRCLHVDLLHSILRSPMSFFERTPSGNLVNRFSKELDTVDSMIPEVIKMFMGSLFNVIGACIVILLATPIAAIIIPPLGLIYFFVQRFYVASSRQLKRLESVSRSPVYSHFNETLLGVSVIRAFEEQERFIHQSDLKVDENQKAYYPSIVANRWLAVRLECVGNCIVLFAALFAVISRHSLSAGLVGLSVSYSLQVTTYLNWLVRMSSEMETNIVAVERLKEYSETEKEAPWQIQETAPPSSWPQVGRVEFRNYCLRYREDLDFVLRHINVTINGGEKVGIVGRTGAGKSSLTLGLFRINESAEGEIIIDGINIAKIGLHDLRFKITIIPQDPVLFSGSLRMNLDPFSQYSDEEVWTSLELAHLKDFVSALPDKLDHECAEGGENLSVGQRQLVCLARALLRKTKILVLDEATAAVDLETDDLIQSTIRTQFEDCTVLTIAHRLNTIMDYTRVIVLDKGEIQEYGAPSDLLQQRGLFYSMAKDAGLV", "assay": "cell-based", "procedure": "(§4) The method was adapted from Eneroth et al. [27] and Korjamo et al. [28] with minor modifications. Briefly, each cell line was seeded into a black Cultureplate (PerkinElmer) 96/wells plate with 100 μl medium and allowed to become confluent overnight. Test compounds were solubilized in 100 μl of culture medium and added. […] In treated wells the increase of fluorescence as compared to basal level was measured. The half maximal effective concentration (EC50) values were determined by fitting the fluorescence increase percentage versus log[dose]"}, "BCRP": {"biological_target": "T1, BCRP (Homo sapiens, UniProt Q9UNQ0)", "T1 sequence (Q9UNQ0 1-655)": "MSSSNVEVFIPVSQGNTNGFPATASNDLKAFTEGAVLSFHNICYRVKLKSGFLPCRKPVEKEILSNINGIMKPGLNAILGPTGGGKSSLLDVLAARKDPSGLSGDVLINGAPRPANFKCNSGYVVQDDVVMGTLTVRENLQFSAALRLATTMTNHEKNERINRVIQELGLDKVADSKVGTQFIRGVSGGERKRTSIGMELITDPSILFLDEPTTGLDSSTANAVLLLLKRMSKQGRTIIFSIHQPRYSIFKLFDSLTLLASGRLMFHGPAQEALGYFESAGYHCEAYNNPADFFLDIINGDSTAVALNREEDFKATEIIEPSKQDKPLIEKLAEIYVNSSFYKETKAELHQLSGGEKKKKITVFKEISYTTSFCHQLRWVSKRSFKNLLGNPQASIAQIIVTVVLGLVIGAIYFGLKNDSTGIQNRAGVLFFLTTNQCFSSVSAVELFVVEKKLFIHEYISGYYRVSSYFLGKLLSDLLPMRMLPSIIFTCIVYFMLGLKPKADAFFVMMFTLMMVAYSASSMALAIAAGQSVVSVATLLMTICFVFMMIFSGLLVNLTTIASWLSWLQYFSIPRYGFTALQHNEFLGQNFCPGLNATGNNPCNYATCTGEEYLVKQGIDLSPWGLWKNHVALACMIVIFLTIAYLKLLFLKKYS", "assay": "cell-based", "procedure": "as §4"}}, "note": "Like-named read-outs stand apart in the source and are kept apart here.", "data": [{"smiles": "Cc1ccc(-c2cc(C(F)(F)F)nn2-c2ccc(S(N)(=O)=O)cc2)cc1", "note": "[Celecoxib, celecoxib]", "values": [{"measurement": "EC50", "setting": "5637", "value": "> 50", "unit": "µM"}, {"measurement": "EC50", "setting": "J82; J82, 48 h", "value": "11.6 ± 0.31", "unit": "µM"}, {"measurement": "EC50", "setting": "TCC sup; TCC-SUP", "value": "15.7 ± 0.5", "unit": "µM"}, {"measurement": "EC50", "setting": "UMUC3; UMUC3, 48 h", "value": "14.2 ± 0.7", "unit": "µM"}, {"measurement": "EC50", "setting": "UMUC-3- CX; UMUC3, 48 h", "value": "16.3 ± 0.8", "unit": "µM"}, {"measurement": "EC50", "setting": "5637 si-CX", "value": "> 50", "unit": "µM"}, {"measurement": "Classification of P-gp interaction (Polli's classification)", "setting": "P-gp; from drug transport, substrate transport inhibition and ATP cell depletion assays combined", "value": "P-gp unambiguous substrate"}, {"measurement": "Papp A→B at 120 min, 100 µM", "setting": "P-gp; human, Caco-2 monolayer, apical-basolateral flux, 120 min", "value": 13.7, "unit": "×10⁻⁶ cm/s"}, {"measurement": "Papp B→A at 120 min, 100 µM", "setting": "P-gp; human, Caco-2 monolayer, basolateral-apical flux, 120 min", "value": 103, "unit": "×10⁻⁶ cm/s"}, {"measurement": "ATP cell depletion", "setting": "Caco-2 cells", "value": "decreased ATP levels in a time- and dose-dependent fashion"}, {"measurement": "Effect on MMC intracellular accumulation", "setting": "UMUC-3 cells", "value": "not seen"}, {"measurement": "Effect on MMC intracellular accumulation", "setting": "UMUC-3-CX cells", "value": "increase of intracellular MMC concentration"}, {"measurement": "EC50", "setting": "MRP1", "value": "10.1 ± 0.5", "unit": "µM"}, {"measurement": "EC50", "setting": "BCRP", "value": "24.1 ± 1.2", "unit": "µM"}]}, {"smiles": "CO[C@@]12[C@H](COC(N)=O)C3=C(C(=O)C(C)=C(N)C3=O)N1C[C@@H]1N[C@@H]12", "note": "[Mitomycin C]", "values": [{"measurement": "EC50", "setting": "5637; 5637, compound alone", "value": "0.93 ± 0.04", "unit": "µM"}, {"measurement": "EC50", "setting": "J82; J82, compound alone, 48 h", "value": "0.64 ± 0.09", "unit": "µM"}, {"measurement": "EC50", "setting": "TCC sup; TCC sup, compound alone", "value": "0.83 ± 0.07", "unit": "µM"}, {"measurement": "EC50", "setting": "UMUC3; UMUC3, compound alone, 48 h", "value": "1.69 ± 0.09", "unit": "µM"}, {"measurement": "EC50", "setting": "UMUC-3- CX; UMUC3, UMUC-3-CX, compound alone, 48 h", "value": "13 ± 1", "unit": "µM"}, {"measurement": "Fold improvement of MMC anti-proliferative activity by co-administration of celecoxib compared to MMC alone", "setting": "UMUC-3- CX; UMUC-3-CX, celecoxib 1 μM, 5 μM and 10 μM, 48 h, listed as MMC", "value": "2–3 fold"}, {"measurement": "Anti-proliferative effect of MMC alone, fold greater in UMUC-3 than in UMUC-3-CX", "setting": "UMUC-3- CX; UMUC-3 versus UMUC-3-CX, 48 h", "value": 8, "unit": "fold"}, {"measurement": "EC50", "setting": "5637 si-CX; 5637 si-CX, compound alone", "value": "0.62 ± 0.05", "unit": "µM"}]}]}
